# Measured values from ChEMBL document CHEMBL1155084 (J Med Chem, 2008).
# Columns and labels:
# Blood [1] = experiment: Inhibition of TNFalpha release in human whole blood; type: functional, tissue-based
# CYP1A2 = target: T1, CYP1A2 (Homo sapiens, UniProt P05177); experiment: Inhibition of CYP1A2 at 10 uM; type: ADME
# T1 sequence (P05177 whole entry): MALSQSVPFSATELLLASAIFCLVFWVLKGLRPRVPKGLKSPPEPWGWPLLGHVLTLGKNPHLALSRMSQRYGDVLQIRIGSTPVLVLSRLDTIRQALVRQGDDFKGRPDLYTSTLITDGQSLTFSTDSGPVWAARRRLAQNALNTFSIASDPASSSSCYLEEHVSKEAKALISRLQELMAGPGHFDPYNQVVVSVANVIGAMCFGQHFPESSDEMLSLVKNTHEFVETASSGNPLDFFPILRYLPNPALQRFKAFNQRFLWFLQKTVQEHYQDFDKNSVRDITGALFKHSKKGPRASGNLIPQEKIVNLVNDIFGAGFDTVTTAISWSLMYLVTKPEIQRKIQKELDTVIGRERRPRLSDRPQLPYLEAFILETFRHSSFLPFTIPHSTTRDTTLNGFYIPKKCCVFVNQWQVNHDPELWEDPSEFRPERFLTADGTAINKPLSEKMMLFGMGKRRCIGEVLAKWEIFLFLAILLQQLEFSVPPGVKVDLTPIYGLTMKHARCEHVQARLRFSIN
# CYP2C9 = CYP2C9 (Homo sapiens, UniProt P11712); experiment: Inhibition of CYP2C9 at 10 uM; type: ADME
# CYP2C9, sequence (P11712 whole entry): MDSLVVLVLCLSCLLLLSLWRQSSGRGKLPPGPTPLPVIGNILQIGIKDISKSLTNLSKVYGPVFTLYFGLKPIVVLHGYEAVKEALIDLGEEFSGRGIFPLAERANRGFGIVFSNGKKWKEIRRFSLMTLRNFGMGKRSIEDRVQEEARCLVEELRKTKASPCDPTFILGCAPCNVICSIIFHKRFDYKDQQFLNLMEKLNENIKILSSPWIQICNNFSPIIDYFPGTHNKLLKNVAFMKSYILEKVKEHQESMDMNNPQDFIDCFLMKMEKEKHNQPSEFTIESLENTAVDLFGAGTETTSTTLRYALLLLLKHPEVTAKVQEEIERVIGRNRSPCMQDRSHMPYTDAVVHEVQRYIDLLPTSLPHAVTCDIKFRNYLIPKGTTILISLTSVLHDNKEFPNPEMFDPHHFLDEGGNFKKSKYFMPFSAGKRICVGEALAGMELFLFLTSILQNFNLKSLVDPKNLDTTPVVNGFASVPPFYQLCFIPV
# CYP2C19 = CYP2C19 (Homo sapiens, UniProt P33261); experiment: Inhibition of CYP2C19 at 10 uM; type: ADME
# CYP2C19, sequence (P33261 whole entry): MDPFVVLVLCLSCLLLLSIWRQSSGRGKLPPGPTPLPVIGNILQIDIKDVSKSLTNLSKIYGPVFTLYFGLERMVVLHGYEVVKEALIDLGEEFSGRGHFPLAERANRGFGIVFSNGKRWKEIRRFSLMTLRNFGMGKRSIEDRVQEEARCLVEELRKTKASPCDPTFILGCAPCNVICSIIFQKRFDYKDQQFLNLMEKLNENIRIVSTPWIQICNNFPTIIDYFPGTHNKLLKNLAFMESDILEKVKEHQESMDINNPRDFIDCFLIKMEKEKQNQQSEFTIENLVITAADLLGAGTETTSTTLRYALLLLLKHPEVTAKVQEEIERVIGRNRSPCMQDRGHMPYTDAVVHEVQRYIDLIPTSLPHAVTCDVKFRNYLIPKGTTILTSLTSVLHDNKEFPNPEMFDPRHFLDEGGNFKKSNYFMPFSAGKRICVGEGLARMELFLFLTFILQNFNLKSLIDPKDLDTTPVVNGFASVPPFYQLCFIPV
# CYP2D6 = CYP2D6 (Homo sapiens, UniProt P10635); experiment: Inhibition of CYP2D6 at 10 uM; type: ADME
# CYP2D6, sequence (P10635 whole entry): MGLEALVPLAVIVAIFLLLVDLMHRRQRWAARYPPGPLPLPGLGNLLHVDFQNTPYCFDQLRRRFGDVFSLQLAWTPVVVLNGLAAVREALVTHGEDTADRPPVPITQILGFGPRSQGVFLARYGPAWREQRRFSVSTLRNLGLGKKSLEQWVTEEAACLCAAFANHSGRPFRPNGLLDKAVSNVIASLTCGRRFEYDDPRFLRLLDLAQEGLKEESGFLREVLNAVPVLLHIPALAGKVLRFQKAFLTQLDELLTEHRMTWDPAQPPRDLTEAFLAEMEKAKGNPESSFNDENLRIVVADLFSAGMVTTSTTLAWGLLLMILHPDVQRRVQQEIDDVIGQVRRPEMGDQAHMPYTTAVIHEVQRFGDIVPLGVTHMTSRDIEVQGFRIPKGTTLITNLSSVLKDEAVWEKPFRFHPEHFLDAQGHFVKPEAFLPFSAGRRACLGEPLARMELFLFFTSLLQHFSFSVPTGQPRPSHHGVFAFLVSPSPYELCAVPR
# CYP3A4 = CYP3A4 (Homo sapiens, UniProt P08684); experiment: Inhibition of CYP3A4 at 10 uM; type: ADME
# CYP3A4, sequence (P08684 whole entry): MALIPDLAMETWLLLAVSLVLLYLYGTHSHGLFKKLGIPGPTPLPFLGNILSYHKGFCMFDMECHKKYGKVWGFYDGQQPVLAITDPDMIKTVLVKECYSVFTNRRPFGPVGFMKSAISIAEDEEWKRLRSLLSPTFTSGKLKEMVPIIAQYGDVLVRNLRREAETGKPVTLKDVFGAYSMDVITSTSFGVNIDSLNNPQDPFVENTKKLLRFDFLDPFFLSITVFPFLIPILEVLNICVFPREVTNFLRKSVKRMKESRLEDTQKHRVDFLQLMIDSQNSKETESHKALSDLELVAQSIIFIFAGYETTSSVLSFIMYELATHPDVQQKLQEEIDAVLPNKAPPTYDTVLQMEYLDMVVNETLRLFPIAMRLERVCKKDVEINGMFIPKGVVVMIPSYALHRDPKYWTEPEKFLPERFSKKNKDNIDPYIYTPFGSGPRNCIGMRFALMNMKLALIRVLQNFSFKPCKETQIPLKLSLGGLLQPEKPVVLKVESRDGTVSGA
# [2] = target: Mitogen-activated protein kinase 14 (Homo sapiens, UniProt Q16539); experiment: Inhibition of p38alpha
# Mitogen-activated protein kinase 14, sequence (Q16539 whole entry): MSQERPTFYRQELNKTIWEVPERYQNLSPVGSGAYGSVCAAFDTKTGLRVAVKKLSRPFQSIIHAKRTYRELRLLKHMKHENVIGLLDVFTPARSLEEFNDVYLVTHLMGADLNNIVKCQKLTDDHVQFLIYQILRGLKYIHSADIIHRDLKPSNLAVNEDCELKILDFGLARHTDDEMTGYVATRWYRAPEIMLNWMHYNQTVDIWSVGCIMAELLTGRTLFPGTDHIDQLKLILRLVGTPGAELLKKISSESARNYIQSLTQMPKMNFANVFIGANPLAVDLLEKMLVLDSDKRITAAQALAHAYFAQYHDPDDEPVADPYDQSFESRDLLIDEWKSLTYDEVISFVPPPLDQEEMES
# Blood [3] = experiment: Inhibition of IL1-beta release in human whole blood; type: functional, tissue-based
SMILES,IC50 (Blood [1]) [nM],inhibition at 10 µM (CYP1A2) [%],inhibition at 10 µM (CYP2C9) [%],inhibition at 10 µM (CYP2C19) [%],inhibition at 10 µM (CYP2D6) [%],inhibition at 10 µM (CYP3A4) [%],IC50 [2] [nM],IC50 (Blood [3]) [nM]
CSc1nc(-c2ccc(F)cc2)c(-c2ccnc(N[C@@H](C)c3ccccc3)c2)n1C,1710,60,66,76,27,87,70,
COCCn1c(SC)nc(-c2ccc(F)cc2)c1-c1ccnc(N[C@H](C)c2ccccc2)c1,9860,25,71,83,64,87,610,
COCCn1c(SC)nc(-c2ccc(F)cc2)c1-c1ccnc(N[C@H]2CC[C@H](O)CC2)c1,1650,23,40,58,24,80,3,
COCCn1c(SC)nc(-c2ccc(F)cc2)c1-c1ccnc(N[C@@H](C)c2ccccc2)c1,580,5,85,95,25,81,40,
CSc1nc(-c2ccc(F)cc2)c(-c2ccnc(N[C@H](C)c3ccccc3)c2)n1C,> 20000,52,78,87,53,85,960,
CSc1nc(-c2ccc(F)cc2)c(-c2ccnc(NCc3cccs3)c2)[nH]1,4880,83,82,78,51,83,46,
CSc1nc(-c2ccc(F)cc2)c(-c2ccnc(NCC3CCCCC3)c2)[nH]1,5940,62,73,80,63,80,80,
CSc1nc(-c2ccc(F)cc2)c(-c2ccnc(NCc3cccnc3)c2)[nH]1,9850,67,77,81,54,93,98,
CSc1nc(-c2ccc(F)cc2)c(-c2ccnc(NCC(C)O)c2)[nH]1 (centres undefined),416,29,39,25,5,33,21,1890
CSc1nc(-c2ccc(F)cc2)c(-c2ccnc(Oc3ccc(C)cc3)c2)[nH]1,18300,94,81,86,0,95,33,27400
CSc1nc(-c2ccc(F)cc2)c(-c2ccnc(NCc3ccco3)c2)[nH]1,5520,76,71,63,66,81,60,
CSc1nc(-c2ccc(F)cc2)c(-c2ccnc(NCc3ccccn3)c2)[nH]1,4320,53,52,47,9,53,70,
CSc1nc(-c2ccc(F)cc2)c(-c2ccnc(NC(C)C(C)C)c2)[nH]1 (centres undefined),167,45,75,76,53,59,11,630
